Ends that are not written are not given here.
Columns and labels:
CD8+ T cells [1] = experiment: Intracellular cytokine staining (ICS), WT C57BL/6 mice treated with IFNAR-blocking antibody; format: cell-based, mouse; settings: splenocytes day 7 after MR766 or FSS13025; four peptides shared by both strains, NS31866-1874 MR766 only
Description: (§1) For intracellular cytokine staining (ICS), splenocytes were counted after red blood cell lysis and resuspended in 10% FBS/RPMI medium at 40×10^6 cells per ml. Splenocytes (2×10^6) were plated and stimulated with 1 μg of individual peptide as previously detailed (Elong Ngono et al., 2016). Positive (PMA-Ionomycin) and negative (No stimulation) controls were added for all experiments. Cells were labeled with anti-CD3 (Clone 145-2C11), anti-CD8 (clone 53-67), anti-CD44 (clone IM7), and anti-CD62L (clone Mel-14). Cells then were fixed and permeabilized, followed by staining with anti-granzyme B (clone NGZB), anti-IFNγ (clone XMG 1.2) and anti-TNFα(clone MP6-XT22). Samples were read on an LSR II (BD Biosciences) and were analyzed using FLOWJO™ software X 10.0.7 (Tree Star, Ashland, Oreg.).
The following results are with respect to FIG. 7A to FIG. 7E, where WT C57BL/6 mice treated with type I IFN receptor-blocking antibody on day 1 prior to infection were inoculated with 10^4 FFU of ZIKV strain MR766 (n=3) or FSS (n=3), or injected with 10% FBS/PBS (MOCK, n=2). […] The data are expressed as the mean of spot forming cells (SFC) per 10^6 CD8^+ T cells. […] Splenocytes were harvested on day 7 post-infection, followed by stimulation with 1 μg of IFNγ-ELISPOT-positive ZIKV-derived peptides in presence of Brefeldin A (BFA) and CD107a for 4 hours, and the production of IFNγ and TNFα was assessed via ICS. […]

CD8+ T cells [2] = experiment: ICS, LysMCre+IFNARfl/fl mice; format: cell-based, mouse; settings: LysMCre+IFNARfl/fl mice infected with MR766 or FSS13025
Description: as §1
The following results are with reference to FIG. 3A and FIG. 3B, where five-week-old LysMCre^+IFNAR^fl/fl were infected retro-orbitally with 10^4 FFU of ZIKV MR766 or FSS13025. […] A total of 244 peptides from ZIKV strains predicted to bind H-2Kb and H-2db with high affinity were screened. Two independent experiments for each ZIKV strain (n=5 mice for each experiment) were performed in triplicate per peptide. The data are expressed as the mean of spot forming cells (SFC) per 10^6 CD8^+ T cells, and error bars are represented as SEM. […]

CD8+ T cells [3] = settings: H-2b restricted; cited from earlier work
[4] = system: splenocytes pulsed with ZIKV-derived peptides (target cells); format: in vivo, mouse; settings: LysMCre+IFNARfl/fl mice infected with MR766 or FSS13025, day 7; targets pulsed with the three peptides; 12 h
Description: LysMCre^+IFNAR^fl/fl and WT mice were infected with 10^4 FFU of MR766 or FSS13025. Seven days post-infection, splenocytes were harvested from naïve donor mice, followed by stimulation with a pool of H-2b-restricted ZIKV-peptides (PrM169-177(SEQ ID NO: 19), E297-305 (SEQ ID NO: 25), N552783-2792 (SEQ ID NO: 20)) referred to as “Target Cells” or with DMSO for 3 h at 37° C. The cells were washed and labeled with CSFE (Invitrogen) in PBS/0.1% BSA for 10 min at 37° C. Target cells were labeled with 1 μM CSFE (High) or 100 nM CSFE (Low) for unstimulated cells. After washing, 10^7 of labeled cells (5×10^6 of each population) were injected intravenously into MOCK and infected recipients. Splenocytes from recipients were harvested 4 (Wild type) or 12 h later (LysMCre^+IFNAR^fl/fl) and analyzed by flow cytometry. The percentage of killing is calculated as followed: 100−(% ZIKV-peptide stimulated in infected mice/% DMSO-stimulated in infected mice)/(% ZIKV-peptide stimulated in naïve mice/% DMSO-stimulated in naïve mice)×100).
The following results are with respect to FIG. 7A to FIG. 7E, where WT C57BL/6 mice treated with type I IFN receptor-blocking antibody on day 1 prior to infection were inoculated with 10^4 FFU of ZIKV strain MR766 (n=3) or FSS (n=3), or injected with 10% FBS/PBS (MOCK, n=2). […] Four independent experiments for MR766 (n=8 mice per experiment) and two independent experiments for FSS13025 (n=8 mice per experiment) were performed in triplicate for each peptide. The data are expressed as the mean of spot forming cells (SFC) per 10^6 CD8^+ T cells. One-way ANOVA was used to compare the mean of each peptide with the control (DMSO). […] Pooled data from two independent experiments are shown. The dotted line corresponds to the average value obtained by MOCK after stimulation (0.43% of IFNγ^+CD8^+ T cells). Splenocytes were harvested on day 7 post-infection, followed by stimulation with 1 μg of IFNγ-ELISPOT-positive ZIKV-derived peptides in presence of Brefeldin A (BFA) and CD107a for 4 hours, and the production of IFNγ and TNFα was assessed via ICS. […]

| Sequence | frequency of IFNγ-producing CD8+ T cells (ICS) (CD8+ T cells [1]) | immunodominance of epitopes (IFNγ+TNFα+ and CD107a+IFNγ+ ICS) (CD8+ T cells [2]) | cross-reactivity with CD8+ T cells induced in DENV2-infected mice (CD8+ T cells [3]) | in vivo cytotoxicity against peptide-pulsed splenocytes [4] |
| --- | --- | --- | --- | --- |
| IGVSNRDFV [SEQ ID NO 21] | induced a high frequency of IFNγ-expressing cells | immunodominant epitopes | cross-reactive |  |
| SNRDFVEGM [SEQ ID NO 25] |  |  |  | high percentage of cytotoxicity |
| ATMSYECPM [SEQ ID NO 19] |  |  |  | high percentage of cytotoxicity |
| CAEAPNMKVI [SEQ ID NO 20] |  |  |  | high percentage of cytotoxicity |
| PSVRNGNEI [SEQ ID NO 5] | induced a high frequency of IFNγ-expressing cells |  | cross-reactive |  |

Reference: patent US11806393B2, “Flavivirus peptide sequences, epitopes, and methods and uses thereof” (priority 2017, dated 2023)
